Measurements from publication PMC7549094 (Journal of Medicinal Chemistry, 2020).

Legend:
Assay in all cases: receptor profile (Table S4)
[1] = biological target: hr EGFR (Homo sapiens, UniProt P00533); type: biochemical
[2] = biological target: hr V1a (Homo sapiens, UniProt P37288); type: binding
[3] = biological target: T1, hr Ad1 (Homo sapiens, UniProt P30542); type: binding
T1 sequence (P30542 1-326): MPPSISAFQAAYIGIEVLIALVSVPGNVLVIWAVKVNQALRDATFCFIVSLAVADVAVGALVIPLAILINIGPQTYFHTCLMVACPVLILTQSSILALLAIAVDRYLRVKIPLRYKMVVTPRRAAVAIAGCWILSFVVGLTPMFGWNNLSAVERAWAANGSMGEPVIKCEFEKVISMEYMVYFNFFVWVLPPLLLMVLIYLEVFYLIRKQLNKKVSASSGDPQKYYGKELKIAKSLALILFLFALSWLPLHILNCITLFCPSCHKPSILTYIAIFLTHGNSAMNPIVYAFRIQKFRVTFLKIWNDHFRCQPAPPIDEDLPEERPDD

[4] = biological target: T2, hr GR antag (Homo sapiens, UniProt P04150); type: biochemical
T2 sequence (P04150 1-777): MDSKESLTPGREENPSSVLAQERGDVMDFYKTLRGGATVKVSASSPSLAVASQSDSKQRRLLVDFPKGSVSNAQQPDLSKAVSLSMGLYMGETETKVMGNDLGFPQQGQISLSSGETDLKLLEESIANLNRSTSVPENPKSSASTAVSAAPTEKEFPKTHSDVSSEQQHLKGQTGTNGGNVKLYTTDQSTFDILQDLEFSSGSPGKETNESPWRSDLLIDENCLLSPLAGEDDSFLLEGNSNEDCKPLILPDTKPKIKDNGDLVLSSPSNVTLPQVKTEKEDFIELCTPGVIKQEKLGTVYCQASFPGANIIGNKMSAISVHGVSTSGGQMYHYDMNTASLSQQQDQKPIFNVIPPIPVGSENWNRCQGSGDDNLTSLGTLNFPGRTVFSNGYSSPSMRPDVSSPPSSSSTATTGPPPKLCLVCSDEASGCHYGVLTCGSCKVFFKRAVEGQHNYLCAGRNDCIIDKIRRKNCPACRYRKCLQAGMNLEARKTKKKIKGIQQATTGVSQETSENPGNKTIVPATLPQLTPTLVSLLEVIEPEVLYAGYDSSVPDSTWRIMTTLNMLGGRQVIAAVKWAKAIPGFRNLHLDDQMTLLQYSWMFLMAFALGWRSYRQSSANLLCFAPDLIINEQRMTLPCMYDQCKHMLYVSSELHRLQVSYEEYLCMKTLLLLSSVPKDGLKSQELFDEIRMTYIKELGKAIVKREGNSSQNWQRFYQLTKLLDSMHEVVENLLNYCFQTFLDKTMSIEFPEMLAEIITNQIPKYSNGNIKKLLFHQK

[5] = biological target: hr OpM (Homo sapiens, UniProt P35372); type: binding
[6] = biological target: T3, hr 5-HT1A ag (Homo sapiens, UniProt P08908); type: biochemical
T3 sequence (P08908 1-422): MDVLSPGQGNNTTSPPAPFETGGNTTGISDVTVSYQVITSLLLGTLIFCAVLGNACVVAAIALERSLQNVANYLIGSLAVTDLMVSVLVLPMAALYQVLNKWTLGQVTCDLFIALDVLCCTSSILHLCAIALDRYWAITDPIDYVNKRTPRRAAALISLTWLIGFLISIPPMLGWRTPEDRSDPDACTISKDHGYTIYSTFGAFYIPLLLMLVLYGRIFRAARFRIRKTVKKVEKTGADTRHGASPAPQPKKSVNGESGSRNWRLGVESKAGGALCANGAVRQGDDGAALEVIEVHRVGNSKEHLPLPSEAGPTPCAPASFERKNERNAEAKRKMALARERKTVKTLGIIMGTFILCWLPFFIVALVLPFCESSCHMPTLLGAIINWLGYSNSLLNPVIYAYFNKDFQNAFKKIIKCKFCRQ

[7] = biological target: T4, hr Al2A ag (Homo sapiens, UniProt P08913); type: biochemical
T4 sequence (P08913 1-465): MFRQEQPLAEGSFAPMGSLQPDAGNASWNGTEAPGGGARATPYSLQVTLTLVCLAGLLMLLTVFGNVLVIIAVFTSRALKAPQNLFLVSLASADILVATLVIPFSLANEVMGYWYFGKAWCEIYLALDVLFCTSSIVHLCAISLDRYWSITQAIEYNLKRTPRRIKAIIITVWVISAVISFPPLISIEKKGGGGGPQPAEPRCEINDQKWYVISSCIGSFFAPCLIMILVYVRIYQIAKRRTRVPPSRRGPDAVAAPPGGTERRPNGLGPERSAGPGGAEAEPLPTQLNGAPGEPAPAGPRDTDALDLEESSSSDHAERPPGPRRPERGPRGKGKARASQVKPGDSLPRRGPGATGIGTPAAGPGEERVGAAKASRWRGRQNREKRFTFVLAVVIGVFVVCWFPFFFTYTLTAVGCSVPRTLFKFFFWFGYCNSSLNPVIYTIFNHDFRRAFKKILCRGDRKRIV

[8] = biological target: T5, h AdT (Homo sapiens, UniProt Q99808); type: binding
T5 sequence (Q99808 2-456 limits assumed): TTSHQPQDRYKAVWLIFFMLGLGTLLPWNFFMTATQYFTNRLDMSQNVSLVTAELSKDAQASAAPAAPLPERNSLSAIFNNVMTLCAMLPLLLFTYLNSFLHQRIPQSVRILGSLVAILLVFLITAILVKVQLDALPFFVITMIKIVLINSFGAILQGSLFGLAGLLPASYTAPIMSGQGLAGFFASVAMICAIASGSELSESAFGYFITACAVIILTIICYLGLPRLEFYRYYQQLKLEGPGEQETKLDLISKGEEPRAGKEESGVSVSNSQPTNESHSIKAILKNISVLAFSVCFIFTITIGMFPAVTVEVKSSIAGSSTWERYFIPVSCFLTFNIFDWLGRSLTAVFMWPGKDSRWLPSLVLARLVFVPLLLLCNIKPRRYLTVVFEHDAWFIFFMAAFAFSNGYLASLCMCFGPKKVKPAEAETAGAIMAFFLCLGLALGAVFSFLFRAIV

Chain of hr EGFR (P00533 25-1210): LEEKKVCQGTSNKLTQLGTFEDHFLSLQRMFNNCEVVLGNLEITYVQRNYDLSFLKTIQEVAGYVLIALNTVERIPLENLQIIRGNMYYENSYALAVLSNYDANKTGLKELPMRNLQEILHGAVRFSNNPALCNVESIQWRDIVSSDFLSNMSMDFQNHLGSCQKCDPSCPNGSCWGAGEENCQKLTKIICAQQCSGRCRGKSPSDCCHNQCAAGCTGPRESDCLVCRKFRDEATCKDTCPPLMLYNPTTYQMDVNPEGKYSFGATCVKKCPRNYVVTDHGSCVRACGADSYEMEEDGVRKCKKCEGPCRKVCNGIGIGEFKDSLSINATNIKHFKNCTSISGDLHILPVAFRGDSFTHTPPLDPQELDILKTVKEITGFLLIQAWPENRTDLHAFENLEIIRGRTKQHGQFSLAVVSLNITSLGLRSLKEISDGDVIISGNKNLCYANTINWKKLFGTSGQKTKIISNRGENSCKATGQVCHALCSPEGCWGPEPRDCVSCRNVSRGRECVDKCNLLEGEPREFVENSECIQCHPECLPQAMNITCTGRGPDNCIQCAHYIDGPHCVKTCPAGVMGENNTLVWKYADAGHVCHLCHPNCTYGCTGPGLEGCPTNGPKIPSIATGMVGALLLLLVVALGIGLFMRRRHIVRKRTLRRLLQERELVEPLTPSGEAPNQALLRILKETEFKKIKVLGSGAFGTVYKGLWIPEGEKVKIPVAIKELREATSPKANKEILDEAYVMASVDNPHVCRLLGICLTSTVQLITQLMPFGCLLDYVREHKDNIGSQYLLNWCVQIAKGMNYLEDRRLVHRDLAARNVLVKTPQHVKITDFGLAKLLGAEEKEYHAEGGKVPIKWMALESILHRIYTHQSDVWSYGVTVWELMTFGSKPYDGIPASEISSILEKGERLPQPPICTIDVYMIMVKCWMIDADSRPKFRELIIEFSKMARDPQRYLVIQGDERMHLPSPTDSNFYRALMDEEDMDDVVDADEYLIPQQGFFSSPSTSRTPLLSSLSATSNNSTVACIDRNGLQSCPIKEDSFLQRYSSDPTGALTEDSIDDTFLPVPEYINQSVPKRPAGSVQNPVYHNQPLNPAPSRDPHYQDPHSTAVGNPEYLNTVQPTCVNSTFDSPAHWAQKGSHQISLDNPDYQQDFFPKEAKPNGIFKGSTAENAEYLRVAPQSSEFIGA
Chain of hr V1a (P37288 whole entry): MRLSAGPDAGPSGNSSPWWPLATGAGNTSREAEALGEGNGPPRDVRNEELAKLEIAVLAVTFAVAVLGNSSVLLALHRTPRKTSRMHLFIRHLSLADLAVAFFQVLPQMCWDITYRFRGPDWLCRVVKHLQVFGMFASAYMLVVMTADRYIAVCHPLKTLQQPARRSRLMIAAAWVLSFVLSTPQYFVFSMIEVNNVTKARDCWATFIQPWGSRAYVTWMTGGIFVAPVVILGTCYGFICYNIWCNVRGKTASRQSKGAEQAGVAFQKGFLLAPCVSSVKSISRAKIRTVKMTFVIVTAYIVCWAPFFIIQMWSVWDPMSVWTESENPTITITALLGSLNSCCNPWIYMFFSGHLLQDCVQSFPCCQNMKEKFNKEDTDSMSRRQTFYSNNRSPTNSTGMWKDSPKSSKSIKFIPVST
Chain of hr OpM (P35372 whole entry): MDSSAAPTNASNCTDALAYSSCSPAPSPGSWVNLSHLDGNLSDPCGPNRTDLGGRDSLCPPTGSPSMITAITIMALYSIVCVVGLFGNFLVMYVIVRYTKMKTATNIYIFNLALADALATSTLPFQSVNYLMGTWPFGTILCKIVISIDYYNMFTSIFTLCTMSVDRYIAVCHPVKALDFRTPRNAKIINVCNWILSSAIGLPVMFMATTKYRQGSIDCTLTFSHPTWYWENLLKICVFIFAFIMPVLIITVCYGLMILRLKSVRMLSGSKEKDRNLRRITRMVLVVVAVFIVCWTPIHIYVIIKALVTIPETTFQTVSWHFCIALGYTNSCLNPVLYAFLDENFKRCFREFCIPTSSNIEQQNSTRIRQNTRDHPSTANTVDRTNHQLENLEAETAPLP

Cc1nc(C)c(C(=O)Nc2ccc(F)c(-c3nc4ncc(-c5ncccc5C)cn4n3)c2)o1 [compound 1, N-(4-Fluoro-3-(6-(3-methylpyridin-2-yl)-[1,2,4]triazolo[1,5-a]pyrimidin-2-yl)phenyl)-2,4-dimethyloxazole-5-carboxamide]
EC50/IC50 ([1]; hr EGFR): > 30 µM
inhibition at 10 µM ([1]; read-out: % inh/act @ 10 µM): 16%
inhibition at 30 µM ([1]; read-out: % inh/act @ 30 µM): 17%
EC50/IC50 ([2]; hr V1a): > 30 µM
inhibition at 10 µM ([2]; read-out: % inh/act @ 10 µM): 11%
inhibition at 30 µM ([2]; read-out: % inh/act @ 30 µM): 19%
EC50/IC50 ([3]; hr Ad1): > 30 µM
inhibition at 10 µM ([3]; read-out: % inh/act @ 10 µM): 10%
inhibition at 30 µM ([3]; read-out: % inh/act @ 30 µM): 27%
EC50/IC50 ([4]; hr GR antag): > 30 µM
inhibition at 10 µM ([4]; read-out: % inh/act @ 10 µM): 0%
inhibition at 30 µM ([4]; read-out: % inh/act @ 30 µM): 10%
EC50/IC50 ([5]; hr OpM): > 30 µM
inhibition at 10 µM ([5]; read-out: % inh/act @ 10 µM): 18%
inhibition at 30 µM ([5]; read-out: % inh/act @ 30 µM): 19%
EC50/IC50 ([6]; hr 5-HT1A ag): > 30 µM
inhibition at 10 µM ([6]; read-out: % inh/act @ 10 µM): 1%
inhibition at 30 µM ([6]; read-out: % inh/act @ 30 µM): 1%
EC50/IC50 ([7]; hr Al2A ag): > 30 µM
inhibition at 10 µM ([7]; read-out: % inh/act @ 10 µM): 0%
inhibition at 30 µM ([7]; read-out: % inh/act @ 30 µM): 0%
EC50/IC50 ([8]; h AdT): > 30 µM
inhibition at 10 µM ([8]; read-out: % inh/act @ 10 µM): 28%
inhibition at 30 µM ([8]; read-out: % inh/act @ 30 µM): 42%
